Several values for one entry are separate records, joined by “and”; a condition that tells them apart may be missing. Equal values may be shown once.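 Protocol summary: plate cells (96-well), add compound at 5 concentrations, incubate 48 h, interpolate endpoints linearly. Here, GI50 denotes the concentration required for 50% inhibition of growth. The concentration for full growth arrest is given as TGI.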
Experiments:
Test in all cases: NCI anticancer screen, dose series, 48 h
[1] = tested on: U251 CNS
[2] = tested on: UACC-257 melanoma
[3] = tested on: SF-268 CNS
[4] = tested on: UACC-62 melanoma
[5] = tested on: MALME-3M melanoma
[6] = tested on: EKVX NSCLC
[7] = tested on: OVCAR-4 ovarian
[8] = tested on: LOX IMVI melanoma
[9] = tested on: DLD-1 colon
[10] = tested on: SNB-78 CNS
[11] = tested on: DMS 273 small cell lung

SMILES	GI50 [1]	TGI [1]	GI50 [2]	TGI [2]	GI50 [3]	TGI [3]	GI50 [4]	TGI [4]	GI50 [5]	TGI [5]	GI50 [6]	TGI [6]	GI50 [7]	TGI [7]	GI50 [8]	TGI [8]	TGI [9]	TGI [10]	TGI [11]
NCC(=O)CCC(=O)O	> 100 µM	> 100 µM	> 100 µM	> 100 µM	> 100 µM	> 100 µM	> 100 µM	> 100 µM	> 100 µM	> 100 µM	> 100 µM	> 100 µM	> 100 µM	> 100 µM	> 100 µM	> 100 µM	–	–	–
COc1cc2c3c(n(CCCNCCN4CCOCC4)c(=O)c2cc1OC)-c1cc2c(cc1C3=O)OCO2	–	0.959 µM and 4.55 µM	6.99 µM and 19.2 µM	14.2 µM and 46.2 µM	–	8.09 µM and > 65.8 µM	1.38 µM	7.58 µM	6.5 µM and 8.31 µM	14.5 µM and 27.3 µM	8.93 µM and 7.24 µM	18.2 µM and 18.6 µM	–	50 µM and 12.2 µM	1.04 µM	3.34 µM	–	–	–
CC1=N/C(=C\c2cccc3ccccc23)C(=O)O1	–	> 100 µM	–	> 100 µM	–	> 100 µM	–	> 100 µM	–	> 100 µM	–	> 100 µM	–	–	–	–	> 100 µM	> 100 µM	–
O=C1CCC(=O)C12CCc1cccc(O)c12	–	> 100 µM	–	–	–	> 100 µM	–	> 100 µM	–	> 100 µM	–	> 100 µM	–	> 100 µM	–	> 100 µM	> 100 µM	> 100 µM	> 100 µM
C=CCC(C)(C(=O)NCCC)C(=O)c1ccccc1O (centres undefined)	–	> 100 µM	–	> 100 µM	–	> 100 µM	–	> 100 µM	–	> 100 µM	–	–	–	> 100 µM	–	–	> 100 µM	> 100 µM	> 100 µM
C=C1CO[C@@H]2C[C@@H]1CCC1(C)OC1CC/C(C)=C/CC[C@@]2(C)O (some centres undefined)	37.6 µM	> 74.2 µM	44.7 µM	> 100 µM	48.6 µM	> 100 µM	28.2 µM	> 71.2 µM	48.8 µM	> 100 µM	18.7 µM	43.9 µM	20.9 µM	59.6 µM	7.55 µM	21.4 µM	–	–	–
O=C(/C=C/c1ccc(Cl)cc1)c1ccncc1	–	> 100 µM	–	> 100 µM	–	> 100 µM	–	> 100 µM	–	> 100 µM	–	> 100 µM	–	> 100 µM	–	73.6 µM	> 100 µM	> 100 µM	> 100 µM
Cc1ccc([Se][Se]c2ccc(C)cc2)cc1	–	17.5 µM	–	68.8 µM	–	88.1 µM	–	31.7 µM	–	> 100 µM	–	–	–	36.9 µM	–	18.9 µM	> 100 µM	87.6 µM	32.4 µM
CC(C)[C@@H](CS(=O)(=O)C(C)C)N1C(=O)[C@@](C)(CC(=O)O)C[C@H](c2cccc(Cl)c2)[C@H]1c1ccc(Cl)cc1	7.86 µM	25.3 µM	0.381 µM	6.82 µM	20.8 µM	> 100 µM	0.333 µM	11.3 µM	0.178 µM	6.91 µM	11.9 µM	> 100 µM	7.45 µM	> 75.9 µM	0.485 µM	21 µM	–	–	–

Reference: PubChem BioAssay (NCI)
